From ChEMBL document CHEMBL1201862, “PubChem BioAssay data set” (2004)
Calls of active or inactive are those of the source.

Key:
[1] = viability of uninfected HEp-2 cells – cell-based, HTS, cytotoxicity control for RSV inhibitor project, dose response (AID 2410); assay type: functional; settings: human respiratory syncytial virus
Cytochrome P450 2C9 = Cytochrome P450 2C9 (Homo sapiens, UniProt P11712)
Cytochrome P450 2C19 = Cytochrome P450 2C19 (Homo sapiens, UniProt P33261); assay: Cytochrome panel assay with activity outcomes. Panel member name: p450-cyp2c19 Compounds with AC50 equal or less than 10 uM are considered active; assay type: functional; settings: read-out: AC50
Cytochrome P450 1A2 = target: T1, Cytochrome P450 1A2 (Homo sapiens, UniProt P05177);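 further: PubChem cytochrome P450 panel assay, CYP1A2 panel member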
T1 sequence (P05177 whole entry): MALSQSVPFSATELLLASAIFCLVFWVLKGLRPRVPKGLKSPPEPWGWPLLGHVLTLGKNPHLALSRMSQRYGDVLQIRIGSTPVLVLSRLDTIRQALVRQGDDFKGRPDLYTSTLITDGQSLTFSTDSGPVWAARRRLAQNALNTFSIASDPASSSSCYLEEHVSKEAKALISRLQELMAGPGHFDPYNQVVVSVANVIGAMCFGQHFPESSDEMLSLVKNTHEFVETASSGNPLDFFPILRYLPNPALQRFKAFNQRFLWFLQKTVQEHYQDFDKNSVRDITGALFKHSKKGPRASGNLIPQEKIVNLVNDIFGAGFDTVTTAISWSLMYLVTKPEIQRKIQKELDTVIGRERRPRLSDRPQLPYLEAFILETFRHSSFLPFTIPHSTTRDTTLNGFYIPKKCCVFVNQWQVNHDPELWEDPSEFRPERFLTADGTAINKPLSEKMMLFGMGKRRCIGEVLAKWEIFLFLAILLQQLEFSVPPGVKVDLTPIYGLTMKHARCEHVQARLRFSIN

[2] = test system: Streptococcus sp. 'group A'; assay: Streptococcus pyogenes SK(-)GAS viability under kanamycin – luminescence, BacTiterGlo, confirmation, counter-screen for streptokinase expression inhibitor project, dose response (AID 1900); assay type: functional, organism-based
Streptokinase A = target: T2, Streptokinase A (Streptococcus pyogenes serotype M1, UniProt P10520); assay: viability-normalized secreted streptokinase activity reduction – plasminogen activation absorbance, OD405, dose response (AID 1914); assay type: functional, Streptococcus pyogenes M1 GAS;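 further: secreted streptokinase activity via plasminogen activation per viability signal from cell pellet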
T2 sequence (P10520 whole entry): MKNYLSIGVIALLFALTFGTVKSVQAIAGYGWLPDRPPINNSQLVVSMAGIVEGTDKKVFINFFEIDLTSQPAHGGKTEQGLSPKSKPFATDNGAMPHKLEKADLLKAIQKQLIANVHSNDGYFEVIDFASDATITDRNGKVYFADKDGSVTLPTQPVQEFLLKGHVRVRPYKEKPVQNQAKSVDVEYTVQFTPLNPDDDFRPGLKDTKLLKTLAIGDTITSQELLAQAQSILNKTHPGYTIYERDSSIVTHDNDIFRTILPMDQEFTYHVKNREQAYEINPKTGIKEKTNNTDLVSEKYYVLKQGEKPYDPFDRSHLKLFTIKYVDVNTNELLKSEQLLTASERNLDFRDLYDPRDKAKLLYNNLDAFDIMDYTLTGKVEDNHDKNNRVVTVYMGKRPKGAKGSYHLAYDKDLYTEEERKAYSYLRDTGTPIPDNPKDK

Streptococcus = assay: GAS UMAA2166 growth inhibition – luminescence, BacTiterGlo, counter-screen for streptokinase expression inhibitor project, dose response (AID 1915); assay type: functional, organism-based;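 further: potency for reduction of bacterial viability or growth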
[3] = target: T3, Corticotropin-releasing factor receptor 2/Corticotropin-releasing factor-binding protein (Homo sapiens, UniProt P24387+Q13324); assay: activators of CRF receptor 2 with binding protein – uHTS hits, confirmation (AID 602473); assay type: functional; settings: read-out: EC50_Mean
T3 sequence (Q13324 whole entry): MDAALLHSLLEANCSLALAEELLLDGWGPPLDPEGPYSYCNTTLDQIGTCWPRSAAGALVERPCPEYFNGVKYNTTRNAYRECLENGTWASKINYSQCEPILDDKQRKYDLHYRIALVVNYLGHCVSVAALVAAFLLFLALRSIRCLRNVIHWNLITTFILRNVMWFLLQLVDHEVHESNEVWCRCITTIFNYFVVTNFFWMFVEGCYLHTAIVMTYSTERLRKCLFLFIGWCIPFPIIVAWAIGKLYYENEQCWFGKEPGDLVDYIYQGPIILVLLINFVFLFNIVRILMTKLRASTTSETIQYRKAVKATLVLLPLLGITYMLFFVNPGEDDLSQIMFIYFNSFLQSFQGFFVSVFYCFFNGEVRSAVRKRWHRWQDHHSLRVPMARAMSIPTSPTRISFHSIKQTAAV
T3 sequence (P24387 whole entry): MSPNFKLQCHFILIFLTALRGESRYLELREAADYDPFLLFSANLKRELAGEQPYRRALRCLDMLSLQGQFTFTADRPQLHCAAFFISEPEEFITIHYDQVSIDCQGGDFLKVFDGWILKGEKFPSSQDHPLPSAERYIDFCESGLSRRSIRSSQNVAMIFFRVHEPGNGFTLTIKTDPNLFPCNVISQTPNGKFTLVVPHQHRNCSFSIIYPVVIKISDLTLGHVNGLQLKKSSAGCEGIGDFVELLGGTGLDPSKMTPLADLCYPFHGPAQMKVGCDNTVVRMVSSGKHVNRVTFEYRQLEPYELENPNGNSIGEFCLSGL

Cytochrome P450 3A4 = Cytochrome P450 3A4 (Homo sapiens, UniProt P08684);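 further: CYP3A4 tested as one member of a cytochrome P450 panel screen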
Chain of Cytochrome P450 3A4 (P08684 whole entry): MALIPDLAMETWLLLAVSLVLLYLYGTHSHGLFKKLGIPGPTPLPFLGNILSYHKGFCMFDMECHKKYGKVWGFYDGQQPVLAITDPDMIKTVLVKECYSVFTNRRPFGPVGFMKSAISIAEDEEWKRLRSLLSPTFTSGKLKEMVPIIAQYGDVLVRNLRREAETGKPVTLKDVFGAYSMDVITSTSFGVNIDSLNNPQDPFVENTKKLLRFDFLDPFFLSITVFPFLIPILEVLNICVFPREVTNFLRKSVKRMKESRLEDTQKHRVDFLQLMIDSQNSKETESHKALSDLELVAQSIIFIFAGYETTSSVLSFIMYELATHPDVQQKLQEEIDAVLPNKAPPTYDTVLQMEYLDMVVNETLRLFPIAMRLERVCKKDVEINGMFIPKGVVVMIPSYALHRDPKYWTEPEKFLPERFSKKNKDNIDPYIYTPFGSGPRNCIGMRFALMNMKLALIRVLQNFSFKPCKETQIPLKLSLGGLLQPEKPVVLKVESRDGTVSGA

Chain of Cytochrome P450 2C19 (P33261 whole entry): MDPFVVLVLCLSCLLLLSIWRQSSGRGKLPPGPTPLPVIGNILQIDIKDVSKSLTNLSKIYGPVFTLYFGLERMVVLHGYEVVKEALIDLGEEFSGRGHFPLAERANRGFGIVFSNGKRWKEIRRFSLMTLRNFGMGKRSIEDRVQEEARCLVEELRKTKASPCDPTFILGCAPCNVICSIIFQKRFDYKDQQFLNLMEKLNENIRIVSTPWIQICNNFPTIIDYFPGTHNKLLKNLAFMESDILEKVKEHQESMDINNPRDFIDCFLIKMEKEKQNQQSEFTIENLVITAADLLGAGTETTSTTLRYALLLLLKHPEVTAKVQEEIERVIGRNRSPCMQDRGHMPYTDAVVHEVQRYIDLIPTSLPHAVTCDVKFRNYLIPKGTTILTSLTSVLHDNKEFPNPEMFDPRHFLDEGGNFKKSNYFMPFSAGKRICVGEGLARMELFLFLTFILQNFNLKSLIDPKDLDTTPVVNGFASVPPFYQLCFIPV
Chain of Cytochrome P450 2C9 (P11712 whole entry): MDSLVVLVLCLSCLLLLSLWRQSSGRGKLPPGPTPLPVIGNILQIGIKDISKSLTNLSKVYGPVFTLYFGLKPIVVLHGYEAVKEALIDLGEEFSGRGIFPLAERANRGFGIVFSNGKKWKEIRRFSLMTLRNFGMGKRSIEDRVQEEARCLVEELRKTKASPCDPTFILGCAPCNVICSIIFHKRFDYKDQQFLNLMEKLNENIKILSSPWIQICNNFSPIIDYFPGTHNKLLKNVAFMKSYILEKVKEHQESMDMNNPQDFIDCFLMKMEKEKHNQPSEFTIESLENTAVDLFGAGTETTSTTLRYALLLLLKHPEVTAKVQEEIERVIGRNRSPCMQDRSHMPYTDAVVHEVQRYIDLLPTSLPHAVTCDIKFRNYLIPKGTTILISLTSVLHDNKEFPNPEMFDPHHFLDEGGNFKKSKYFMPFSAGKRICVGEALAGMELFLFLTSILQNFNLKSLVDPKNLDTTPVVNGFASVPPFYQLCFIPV

CC1CN(S(=O)(=O)c2cccc(C(=O)Nc3cc(Cl)ccc3N3CCOCC3)c2)CC(C)O1 (stereo unspecified)
CC50 [1]: 43 µM (active)

CN(C)c1ccc(-c2cncnc2NCCc2cnc[nH]2)cc1
AC50 (Cytochrome P450 2C9): 0.501 µM (inconclusive)

Cc1ccc(NC2c3ncccc3C(=O)N2Cc2ccc(F)cc2)cc1 (stereo unspecified)
CC50 [1]: > 50 µM (active)

CCC/C=C(\CCC)C(NS(=O)(=O)c1cccc2cccnc12)c1ccc(-c2ccccc2)cc1 (stereo unspecified)
AC50 (Cytochrome P450 2C19): 2.51 µM (inconclusive) | AC50 (Cytochrome P450 1A2): 0.794 µM (inconclusive)

OC(COc1ccc(Cl)c2ccccc12)CN1CCN(c2ccccn2)CC1 (stereo unspecified)
CC50 [1]: 18.3 µM (active)

O=C(NNc1nc(-c2ccc(F)cc2)cs1)c1ccccc1
EC50 [2]: 0.831 µM (active) | EC50 (Streptokinase A): > 150 µM (not active) | EC50 (Streptococcus): > 150 µM (not active)

CCNc1nc(NCC)nc(-n2nc(C)cc2C)n1
EC50 [2]: 17.2 µM (active) | EC50 (Streptokinase A): > 150 µM (not active) | EC50 (Streptococcus): > 150 µM (not active)

Cn1cccc1CC(=O)NNC(=S)NC(=O)c1ccccc1Br
EC50 [2]: 5.95 µM (active) | EC50 (Streptokinase A): > 150 µM (not active) | EC50 (Streptococcus): 137 µM (active)

Cc1cc(Br)cc2c1N(C)C(=O)C2(c1ccc(O)cc1)c1ccc(O)cc1
CC50 [1]: 13.8 µM (active)

CN(C)c1ncc2nc(-c3cc(F)cc(F)c3)c(=O)n(-c3ccccc3)c2n1
AC50 (Cytochrome P450 1A2): 0.316 µM (inconclusive)

Cc1ccc(Cn2c(C(C)Nc3nc(-c4ccc(F)cc4)cs3)nc3cc(Cl)c(Cl)cc32)cc1 (stereo unspecified)
CC50 [1]: 49.3 µM (active)

CCCCC(=O)NC(=S)NNC(=O)CCc1ccccc1
EC50 [2]: 3.35 µM (active) | EC50 (Streptococcus): 8.5 µM (active) | EC50 [3]: 4.32 µM (active)

CC(C)NC(=O)N1CC2(CCN(C(=O)c3ccncc3)CC2)C1
AC50 (Cytochrome P450 3A4): 0.0794 µM (inconclusive)

O=c1c2ccccc2c(-c2ccccc2)nn1Cc1ccc(Cl)cc1
AC50 (Cytochrome P450 1A2): 0.0708 µM (inconclusive)

CC(=O)Nc1ccc(OCC(=O)N2CCC(Cc3ccccc3)CC2)cc1
CC50 [1]: 21.6 µM (active)

O=C(Nc1ccc(F)cc1F)c1cccnc1Oc1cccc(C(F)(F)F)c1
AC50 (Cytochrome P450 1A2): 0.794 µM (inconclusive)

Clc1ccc(-c2n[nH]c3c2CCC3)c(Cl)c1
EC50 (Streptokinase A): > 150 µM (not active)

C[C@]12C=CC(=O)C=C1CC[C@@H]1[C@H]3C[C@@H](O)[C@](O)(C(=O)CO)[C@@]3(C)C[C@H](O)[C@]12F
AC50 (Cytochrome P450 2C9): 15.8 µM (inconclusive)

CCC/C=C(\CCC)C(NS(=O)(=O)c1ccc(C(F)(F)F)cc1)c1ccc(C(=O)OC)cc1 (stereo unspecified)
AC50 (Cytochrome P450 3A4): 1 µM (inconclusive)

CCCc1cc2c(n1Cc1cccc(Cl)c1)C(C)C1CN(C(=O)c3ccccc3)C(C)(C(=O)OC)C21 (stereo unspecified)
AC50 (Cytochrome P450 1A2): 31.6 µM (inconclusive)

CCOC(=O)c1nn(-c2ccccc2Cl)c(=O)cc1OCC(=O)Nc1cccc(OC)c1
EC50 [2]: 31.2 µM (active) | EC50 (Streptokinase A): > 150 µM (not active) | EC50 (Streptococcus): > 150 µM (not active)

COC(=O)[C@@]1(Cc2ccc(OC)cc2)[C@H]2c3cc(C(=O)N4CCCC4)n(CCn4cc([N+](=O)[O-])nc4C)c3C[C@H]2CN1C(=O)c1ccccc1
AC50 (Cytochrome P450 2C9): 31.6 µM (inconclusive)

COc1ccccc1NC(=O)Nc1ccc(Cc2ccncc2)cc1
CC50 [1]: 19.1 µM (active)

COc1ccc2nc(NC(C)=O)sc2c1
AC50 (Cytochrome P450 2C19): 39.8 µM (inconclusive) | AC50 (Cytochrome P450 3A4): 28.2 µM (inconclusive)

Cc1cc(NC(=O)c2cc(C(C)C)on2)no1
AC50 (Cytochrome P450 1A2): 20 µM (inconclusive)

CC[C@@H](c1ccccc1)n1c(=O)n2n(c1=O)[C@H]1[C@H](O)[C@H]3O[C@@H]3/C(=N/OCc3ccccc3)[C@@H]1CC2
AC50 (Cytochrome P450 3A4): 5.01 µM (inconclusive)

CCOc1ccc(NS(=O)(=O)c2ccc(C(=O)N3CC(C)OC(C)C3)cc2)cc1 (stereo unspecified)
EC50 [3]: 7.94 µM (active)

CC(=O)c1cccc(NC(=O)c2csc(-n3nc(C)cc3C(F)(F)F)n2)c1
AC50 (Cytochrome P450 2C9): 1 µM (inconclusive) | AC50 (Cytochrome P450 2C19): 7.94 µM (inconclusive)

CCOc1cc(CNc2ccc3c(c2)CCC3)ccc1OC
EC50 [2]: > 150 µM (not active) | EC50 (Streptokinase A): > 150 µM (not active) | EC50 (Streptococcus): > 150 µM (not active)

CCCCNC1=N/C(=C\c2ccco2)C(=O)N1c1ccccc1
AC50 (Cytochrome P450 2C9): 4.47 µM (inconclusive) | AC50 (Cytochrome P450 2C19): 39.8 µM (inconclusive)

Cn1cc(-c2nc3cnc(Oc4ccccc4)nc3n(C3CC3)c2=O)c2ccccc21
AC50 (Cytochrome P450 1A2): 5.01 µM (inconclusive) | AC50 (Cytochrome P450 3A4): 25.1 µM (inconclusive)

COc1ccc(-c2nc3cnc(Nc4cccc(OC)c4)nc3n(C[C@H]3CCCO3)c2=O)cc1
AC50 (Cytochrome P450 3A4): 5.01 µM (inconclusive)

COC(=O)N1CCC2(CCN(C(=O)NC(C)C)CC2)CC1
AC50 (Cytochrome P450 2C9): 12.6 µM (inconclusive) | AC50 (Cytochrome P450 1A2): 20 µM (inconclusive)

COCCN1C(=O)C(O)=C(C(=O)c2cccc(OC)c2)C1c1ccc(C)o1 (stereo unspecified)
AC50 (Cytochrome P450 2C9): 31.6 µM (inconclusive) | AC50 (Cytochrome P450 1A2): 12.6 µM (inconclusive)

O=S(=O)(c1ccccc1)N1CCC2(CCN(c3ccccc3)CC2)CC1
AC50 (Cytochrome P450 2C9): 39.8 µM (inconclusive) | AC50 (Cytochrome P450 2C19): 10 µM (inconclusive) | AC50 (Cytochrome P450 3A4): 2.51 µM (inconclusive)

CCC(=O)Nc1c2c(nc3c1CCC3)CCCC2
AC50 (Cytochrome P450 1A2): 15.8 µM (inconclusive)

COC(=O)c1cc(C(=O)Nc2nc3ccccc3[nH]2)cc([N+](=O)[O-])c1
EC50 [2]: 3.94 µM (active) | EC50 (Streptokinase A): > 150 µM (not active) | EC50 (Streptococcus): > 150 µM (not active)

CC(NC(=O)Nc1ccc(Cl)cc1)c1ccc2c(c1)OCO2 (stereo unspecified)
CC50 [1]: 39.5 µM (active)

CC(C)(C)c1nc(SCC(=O)Nc2ccc(N3CCOCC3)cc2)c2ccccc2n1
AC50 (Cytochrome P450 3A4): 1 µM (inconclusive)

CCn1c2ccccc2c2cc(NC(=O)C(C)Oc3ccc(OC)cc3)ccc21 (stereo unspecified)
AC50 (Cytochrome P450 2C9): 7.94 µM (inconclusive) | CC50 [1]: > 50 µM (active)

COc1ccc(C(=O)N2CCC[C@@]3(CCN(c4ccccc4)C3)C2)cc1
AC50 (Cytochrome P450 3A4): 7.94 µM (inconclusive)

O=S(=O)(c1ccccc1)N1CCC2(CCN(c3ccc(-c4ccccc4)cc3)CC2)CC1
AC50 (Cytochrome P450 3A4): 20 µM (inconclusive)

Cc1ccc2[nH]c(/C(C#N)=C\c3cc(C)n(-c4cccc([N+](=O)[O-])c4)c3C)nc2c1
CC50 [1]: 16.6 µM (active)

O=c1c(CCc2ccccc2)nc2cnc(Oc3ccccc3)nc2n1C1CC1
AC50 (Cytochrome P450 3A4): 15.8 µM (inconclusive)

CC(C)NC(=O)N(C)C[C@H]1OCc2cnnn2CCCC(=O)N([C@H](C)CO)C[C@H]1C
EC50 [3]: > 53 µM (inactive)

CCCc1nc2ccccc2c(=O)n1NC(=O)c1c(O)c2cccc3c2n(c1=O)CCC3
EC50 [2]: 3.78 µM (active) | EC50 (Streptokinase A): > 150 µM (not active) | EC50 (Streptococcus): 7.68 µM (active)

CC(/C=C/c1ccccc1)=N\NC(=O)C1CC1(C)c1ccccc1 (stereo unspecified)
CC50 [1]: 32 µM (active)

Cc1cccc(CNc2ncnc3ccc(-c4c(C)noc4C)cc23)c1
AC50 (Cytochrome P450 2C9): 1 µM (inconclusive)

CC[C@@H](CO)Nc1nc(NCc2ccccc2)c2ncn(C(C)C)c2n1 [(S)-ROSCOVITINE]
AC50 (Cytochrome P450 2C9): 0.316 µM (inconclusive)

CCOC(=O)n1ccn(C)c1=S [CARBIMAZOLE]
AC50 (Cytochrome P450 1A2): 12.6 µM (inconclusive)
